What was measured:
[1] = system: CD69; assay: Induction of CD69 in human whole blood; format: cell-based; details: heparinized human whole blood, 17 hrs at 37° C.; 100% set to 1 uM resiquimod; average where assay performed multiple times; read-out: hWB CD69 EC50
Description: The induction of Type I interferon (IFN) MX-1 genes and the B-cell activation marker CD69 are downstream events that occur upon activation of the TLR7 pathway. The following is a human whole blood assay that measures their induction in response to a TLR7 agonist.
Heparinized human whole blood was harvested from human subjects and treated with test TLR7 agonist compounds at 1 mM. The blood was diluted with RPMI 1640 media and Echo was used to predot 10 nL per well giving a final concentration of 1 uM (10 nL in 10 uL of blood). After mixing on a shaker for 30 sec, the plates were covered and placed in a 37° C. chamber for o/n=17 hrs. Fixing/lysis buffer was prepared (5×→1× in H2O, warm at 37° C.; Cat #BD 558049) and kept the perm buffer (on ice) for later use.
For surface markers staining (CD69): prepared surface Abs: 0.045 ul hCD14-FITC (ThermoFisher Cat #MHCD1401)+0.6 ul hCD19-ef450 (ThermoFisher Cat #48-0198-42)+1.5 ul hCD69-PE (cat #BD555531)+0.855 ul FACS buffer. Added 3 ul/well, spin 1000 rpm for 1 min and mixed on shaker for 30 sec, put on ice for 30 mins. Stop stimulation after 30 min with 70 uL of prewarmed 1× fix/lysis buffer and use Feliex mate to resuspend (15 times, change tips for each plate) and incubate at 37 C for 10 min.
Centrifuge at 2000 rpm for 5 min aspirate with HCS plate washer, mix on shaker for 30 sec and then wash with 70 uL in dPBS and pelleted 2×s (2000 rpm for 5 min) and 50 ul wash in FACS buffer pelleted 1×s (2000 rpm for 5 min). Mix on shaker for 30 sec. For Intracellular markers staining (MX-1): Add 50 ul of BD Perm buffer III and mix on shaker for 30 sec. Incubate on ice for 30 min (in the dark). Wash with 50 uL of FACS buffer 2× (spin @2300 rpm×5 min after perm) followed by mixing on shaker for 30 sec. Resuspended in 20 ul of FACS buffer containing MX1 antibody ( )(4812)-Alexa 647: Novus Biologicals #NBP2-43704AF647) 20 ul FACS bf+0.8 ul hIgG+0.04 ul MX-1. Spin 1000 rpm for 1 min, mix on shaker for 30 se and the samples were incubated at RT in the dark for 45 min followed by washing 2×FACS buffer (spin @2300 rpm×5 min after perm). Resuspend 20 ul (35 uL total per well) of FACS buffer and cover with foil and place in 4° C. to read the following day. Plates were read on iQuePlus. The results were loaded into toolset and […] curves are generated in curve master. The y-axis 100% is set to 1 uM of resiquimod.

[2] = biological target: T1, human TLR7 (Homo sapiens, UniProt Q9NYK1); assay: Human TLR7 agonist activity (reporter) assay; format: cell-based; details: HEK-Blue TLR7 cells, SEAP reporter, 18 h treatment; average where assay performed multiple times; read-out: hTLR7 Agonism EC50
T1 construct: host or cells: HEK-Blue TLR7 cells (engineered human embryonic kidney cells)
T1 sequence (Q9NYK1 27-1049): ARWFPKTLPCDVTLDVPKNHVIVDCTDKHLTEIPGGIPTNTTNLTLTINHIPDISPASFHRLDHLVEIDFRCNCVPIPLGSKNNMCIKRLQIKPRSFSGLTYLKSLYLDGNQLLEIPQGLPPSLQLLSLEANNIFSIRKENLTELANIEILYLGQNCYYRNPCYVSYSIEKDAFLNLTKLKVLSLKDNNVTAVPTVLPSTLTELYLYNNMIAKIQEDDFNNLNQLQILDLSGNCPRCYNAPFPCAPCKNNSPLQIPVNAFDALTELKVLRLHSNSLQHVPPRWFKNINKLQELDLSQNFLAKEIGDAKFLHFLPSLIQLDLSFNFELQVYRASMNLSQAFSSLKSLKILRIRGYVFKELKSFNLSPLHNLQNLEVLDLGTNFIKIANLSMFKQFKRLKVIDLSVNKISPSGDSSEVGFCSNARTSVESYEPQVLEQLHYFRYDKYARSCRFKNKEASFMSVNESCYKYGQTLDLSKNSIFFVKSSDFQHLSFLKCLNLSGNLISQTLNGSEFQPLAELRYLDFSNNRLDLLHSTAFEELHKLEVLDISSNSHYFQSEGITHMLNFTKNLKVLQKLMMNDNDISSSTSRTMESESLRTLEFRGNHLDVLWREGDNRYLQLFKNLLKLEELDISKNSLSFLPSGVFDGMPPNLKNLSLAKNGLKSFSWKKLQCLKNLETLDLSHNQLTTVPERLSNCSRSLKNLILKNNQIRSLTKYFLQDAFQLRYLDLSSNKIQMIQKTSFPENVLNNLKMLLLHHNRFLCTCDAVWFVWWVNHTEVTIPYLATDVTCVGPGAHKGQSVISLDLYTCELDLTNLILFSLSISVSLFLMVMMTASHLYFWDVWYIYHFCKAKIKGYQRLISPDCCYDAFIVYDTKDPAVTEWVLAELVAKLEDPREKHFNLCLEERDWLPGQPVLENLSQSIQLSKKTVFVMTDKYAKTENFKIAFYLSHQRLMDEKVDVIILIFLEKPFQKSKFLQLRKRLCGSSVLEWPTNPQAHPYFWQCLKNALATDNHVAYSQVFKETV
Description: This procedure describes a method for assaying human TLR7 (hTLR7) agonist activity of the compounds disclosed in this specification.
HEK-Blue™ TLR7 cells were added to each well of a 384-well tissue-culture plate (15,000 cells per well) and incubated 16-18 h at 37° C., 5% CO2. Compounds (100 nl) were dispensed into wells containing the HEK-Blue™ TLR cells and the treated cells were incubated at 37° C., 5% CO2. After 18 h treatment ten microliters of freshly-prepared Quanti-Blue” reagent (Invivogen) was added to each well, incubated for 30 min (37° C., 5% CO2) and SEAP levels measured using an Envision plate reader (OD=620 nm). The half maximal effective concentration values (EC50; compound concentration which induced a response halfway between the assay baseline and maximum) were calculated.

| EC50 [1] [µM] | EC50 [2] [µM] | Compound |
| --- | --- | --- |
| 0.0116 | 0.0766 | CCCCNc1nc(N)nc2cnn(Cc3ccc(C(C)(C)N)cc3OC)c12 [Compound 101, 1-(4-(2-Aminopropan-2-yl)-2-methoxybenzyl)-N7-butyl-1H-pyrazolo[4,3-d]pyrimidine-5,7-diamine] |
| 0.0018 | 0.0072 | CCC[C@@H](CCO)Nc1nc(N)nc2cnn(Cc3ccc(C(C)(C)N)cc3OC)c12 [Compound 102, (S)-3-((5-Amino-1-(4-(2-aminopropan-2-yl)-2-methoxybenzyl)-1H-pyrazolo[4,3-d]pyrimidin-7-yl)amino)hexan-1-ol] |
| 0.0506 | – | CCCCNc1nc(N)nc2cnn(Cc3cc(C(C)(C)N)ccc3OC)c12 [Compound 105, 1-(5-(2-Aminopropan-2-yl)-2-methoxybenzyl)-N7-butyl-1H-pyrazolo[4,3-d]pyrimidine-5,7-diamine] |
| 0.0037 | 0.211 | CC[C@@H](CCO)Nc1nc(N)nc2cnn(Cc3ccc(C(C)(C)N)cc3OC)c12 [Compound 106, (S)-3-((5-amino-1-(4-(2-aminopropan-2-yl)-2-methoxybenzyl)-1H-pyrazolo[4,3-d]pyrimidin-7-yl)amino)pentan-1-ol] |
| – | 0.0711 | CCCCNc1nc(N)nc2cnn(Cc3ccc(C(C)(C)O)cc3OC)c12 [Compound 110, 2-(4-{[5-amino-7-(butylamino)-1H-pyrazolo[4,3-d]pyrimidin-1-yl]methyl}-3-methoxyphenyl)propan-2-ol] |
| – | 0.0459 | CCCCNc1nc(N)nc2cnn(Cc3ccc(C(O)(CC)CC)cc3OC)c12 [Compound 111, 3-(4-{[5-amino-7-(butylamino)-1H-pyrazolo[4,3-d]pyrimidin-1-yl]methyl}-3-methoxyphenyl)pentan-3-ol] |
| – | 0.0959 | CCCCNc1nc(N)nc2cnn(Cc3ccc(C(C)(O)CC)cc3OC)c12 (stereo not drawn) [Compound 112, 2-(4-{[5-amino-7-(butylamino)-1H-pyrazolo[4,3-d]pyrimidin-1-yl]methyl}-3-methoxyphenyl)butan-2-ol] |
| – | 0.256 | CCCCNc1nc(N)nc2cnn(Cc3ccc(C(C)(O)CCC)cc3OC)c12 (stereo not drawn) [Compound 113, 2-(4-{[5-amino-7-(butylamino)-1H-pyrazolo[4,3-d]pyrimidin-1-yl]methyl}-3-methoxyphenyl)pentan-2-ol] |
| 0.34 | 0.146 | CCCCNc1nc(N)nc2cnn(Cc3ccc(C(C)(O)C(F)(F)F)cc3OC)c12 (stereo not drawn) [Compound 115, 2-(4-{[5-amino-7-(butylamino)-1H-pyrazolo[4,3-d]pyrimidin-1-yl]methyl}-3-methoxyphenyl)-1,1,1-trifluoropropan-2-ol] |
| 0.276 | 0.257 | CCCCNc1nc(N)nc2cnn(Cc3ccc(C4(O)CC4)cc3OC)c12 [Compound 118, 1-(4-{[5-amino-7-(butylamino)-1H-pyrazolo[4,3-d]pyrimidin-1-yl]methyl}-3-methoxyphenyl)cyclopropan-1-ol] |

Continued, molecule first:

| Compound | EC50 [1] [µM] | EC50 [2] [µM] |
| --- | --- | --- |
| COc1cc(C(C)(C)N)ccc1Cn1ncc2nc(N)nc(NCc3cc(C)on3)c21 [Compound 103, 1-(4-(2-Aminopropan-2-yl)-2-methoxybenzyl)-N7-((5-methylisoxazol-3-yl)methyl)-1H-pyrazolo[4,3-d]pyrimidine-5,7-diamine] | – | 0.202 |
| CCC[C@@H](CCO)Nc1nc(N)nc2cnn(Cc3cc(C(C)(C)N)ccc3OC)c12 [Compound 104, (S)-3-((5-Amino-1-(5-(2-aminopropan-2-yl)-2-methoxybenzyl)-1H-pyrazolo[4,3-d]pyrimidin-7-yl)amino)hexan-1-ol] | 0.0127 | 0.0345 |
| CCCCNc1nc(N)nc2cnn(Cc3ccc(C4(N)COC4)cc3OC)c12 [Compound 107, 1-(4-(3-aminooxetan-3-yl)-2-methoxybenzyl)-N7-butyl-1H-pyrazolo-[4,3-d]pyrimidine-5,7-diamine] | 0.0426 | 0.247 |
| CCC[C@@H](CCO)Nc1nc(N)nc2cnn(Cc3ccc(C4(N)COC4)cc3OC)c12 [Compound 108, (S)-3-((5-amino-1-(4-(3-aminooxetan-3-yl)-2-methoxybenzyl)-1H-pyrazolo[4,3-d]pyrimidin-7-yl)amino)hexan-1-ol] | 0.0033 | 0.0434 |
| CCC[C@@H](CCO)Nc1nc(N)nc2cnn(Cc3ccc(C(C)(C)O)cc3OC)c12 [Compound 109, (3S)-3-[(5-amino-1-{[4-(2-hydroxypropan-2-yl)-2-methoxyphenyl]methyl}-1H-pyrazolo[4,3-d]pyrimidin-7-yl)amino]hexan-1-ol] | 0.0035 | 0.0046 |
| CCCCNc1nc(N)nc2cnn(Cc3ccc(C4(O)COC4)cc3OC)c12 [Compound 114, 3-(4-{[5-amino-7-(butylamino)-1H-pyrazolo[4,3-d]pyrimidin-1-yl]methyl}-3-methoxyphenyl)oxetan-3-ol] | – | 0.41 |
| CCCCNc1nc(N)nc2cnn(Cc3ccc(C4(O)CNC4)cc3OC)c12 [Compound 116, 3-(4-{[5-amino-7-(butylamino)-1H-pyrazolo[4,3-d]pyrimidin-1-yl]methyl}-3-methoxyphenyl)-azetidin-3-ol] | – | 0.786 |
| CCCCNc1nc(N)nc2cnn(Cc3ccc(C4(O)CCC4)cc3OC)c12 [Compound 117, 1-(4-{[5-amino-7-(butylamino)-1H-pyrazolo[4,3-d]pyrimidin-1-yl]methyl}-3-methoxyphenyl)cyclobutan-1-ol] | 0.803 | 0.0259 |
| CCC[C@@H](CCO)Nc1nc(N)nc2cnn(Cc3nc(C(C)(C)N)ccc3OC)c12 [Compound 119, (3S)-3-[(5-amino-1-{[6-(2-aminopropan-2-yl)-3-methoxypyridin-2-yl]methyl}-1H-pyrazolo[4,3-d]pyrimidin-7-yl)amino]hexan-1-ol] | – | 4.95 |
| CCC[C@@H](CCO)Nc1nc(N)nc2cnn(Cc3cnc(C(C)(C)N)cc3OC)c12 [Compound 120, (3S)-3-[(5-amino-1-{[6-(2-aminopropan-2-yl)-4-methoxypyridin-3-yl]methyl}-1H-pyrazolo[4,3-d]pyrimidin-7-yl)amino]hexan-1-ol] | – | 0.0483 |

Source: patent US20230348468A1, “1H-PYRAZOLO[4,3-d]PYRIMIDINE COMPOUNDS AS TOLL-LIKE RECEPTOR 7 (TLR7) AGONISTS” (BRISTOL-MYERS SQUIBB COMPANY, priority 2020, published 2023)
